IC50 data for twelve molecules are collected here from patent publication US9579314B2 (priority 2015, dated 2017).

One assay deals with Human β2 adrenoceptor (Homo sapiens, UniProt P07550). As to conditions: read-out: B2 binding affinity.
The next assay deals with Human M3 receptor (Homo sapiens, UniProt P20309). As to conditions: read-out: M3 binding affinity.

The structures appear in SMILES notation. pIC50: −log10 of the molar value. Some results are limits rather than exact numbers.

Chain of Human β2 adrenoceptor (P07550 whole entry): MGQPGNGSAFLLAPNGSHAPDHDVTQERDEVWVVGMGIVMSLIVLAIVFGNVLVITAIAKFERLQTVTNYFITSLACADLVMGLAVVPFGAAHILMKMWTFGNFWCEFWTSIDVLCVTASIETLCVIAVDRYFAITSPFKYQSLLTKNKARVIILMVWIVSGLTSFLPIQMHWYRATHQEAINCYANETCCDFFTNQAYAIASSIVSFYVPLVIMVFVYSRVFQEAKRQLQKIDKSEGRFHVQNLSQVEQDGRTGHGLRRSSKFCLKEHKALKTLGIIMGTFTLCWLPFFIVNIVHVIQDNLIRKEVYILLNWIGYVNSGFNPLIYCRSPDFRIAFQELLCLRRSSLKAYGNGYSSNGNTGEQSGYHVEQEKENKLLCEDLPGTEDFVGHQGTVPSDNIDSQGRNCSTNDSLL
Chain of Human M3 receptor (P20309 whole entry): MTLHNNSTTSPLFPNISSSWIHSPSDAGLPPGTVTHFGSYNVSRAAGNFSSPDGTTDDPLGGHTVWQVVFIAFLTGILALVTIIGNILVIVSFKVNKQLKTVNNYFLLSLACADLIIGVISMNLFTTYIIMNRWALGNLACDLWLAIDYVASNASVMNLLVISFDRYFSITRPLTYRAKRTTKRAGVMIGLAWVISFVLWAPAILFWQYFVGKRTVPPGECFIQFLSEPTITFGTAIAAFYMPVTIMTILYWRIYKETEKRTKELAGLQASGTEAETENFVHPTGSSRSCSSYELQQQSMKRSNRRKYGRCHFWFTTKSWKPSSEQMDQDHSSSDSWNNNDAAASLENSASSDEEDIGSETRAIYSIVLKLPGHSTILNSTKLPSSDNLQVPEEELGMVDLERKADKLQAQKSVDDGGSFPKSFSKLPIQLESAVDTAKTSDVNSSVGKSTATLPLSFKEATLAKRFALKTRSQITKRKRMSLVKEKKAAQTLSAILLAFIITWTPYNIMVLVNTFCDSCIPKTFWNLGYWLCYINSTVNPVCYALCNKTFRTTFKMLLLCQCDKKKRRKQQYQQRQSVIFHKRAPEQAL

In the case of `COc1cc(CNC[C@H](O)c2ccc(O)c3[nH]c(=O)ccc23)ccc1C(=O)N[C@H]1C[C@H](NC(=O)COc2cccc([C@](O)(C(=O)OCC3CCN(Cc4ccccc4)CC3)c3ccccc3)c2)C1` [Compound 130, (S)-(1-benzylpiperidin-4-yl)methyl 2-hydroxy-2-(3-(2-(((1R,3S)-3-(4-((((R)-2-hydroxy-2-(8-hydroxy-2-oxo-1,2-dihydroquinolin-5-yl)ethyl)amino)methyl)-2-methoxybenzamido)cyclobutyl)amino)-2-oxoethoxy)phenyl)-2-phenylacetate], the pIC50 on Human β2 adrenoceptor and on Human M3 receptor was 8.52 to 9.52 each time.
As for `O=C(COc1cccc([C@](O)(C(=O)OCC2CCN(Cc3ccccc3)CC2)c2ccccc2)c1)NCCNC(=O)c1ccc(CNC[C@H](O)c2ccc(O)c3[nH]c(=O)ccc23)cc1` [Compound 57, (1-Benzylpiperidin-4-yl)methyl (S)-2-hydroxy-2-(3-(2-((2-(4-((((R)-2-hydroxy-2-(8-hydroxy-2-oxo-1,2-dihydroquinolin-5-yl)ethyl)amino)methyl)benzamido)ethyl)amino)-2-oxoethoxy)phenyl)-2-phenylacetate], the pIC50 on Human β2 adrenoceptor and at Human M3 receptor was 8.52 to 9.52 throughout.
Regarding `O=C(c1ccc(CCNC[C@H](O)c2ccc(O)c3[nH]c(=O)ccc23)cc1)N1CCCC2(C1)CN(C(=O)c1ccc(COc3cccc([C@](O)(C(=O)OCC4CCN(Cc5ccccc5)CC4)c4ccccc4)c3)cc1)C2` [Compound 120, (1-benzylpiperidin-4-yl)methyl (S)-2-hydroxy-2-(3-((4-(6-(4-(2-(((R)-2-hydroxy-2-(8-hydroxy-2-oxo-1,2-dihydroquinolin-5-yl)ethyl)amino)ethyl)benzoyl)-2,6-diazaspiro[3.5]nonane-2-carbonyl)benzyl)oxy)phenyl)-2-phenylacetate], the pIC50 on Human β2 adrenoceptor and on Human M3 receptor was above 9.52 throughout.
In the case of `O=C(COc1cccc([C@](O)(C(=O)OCC2CCN(Cc3ccccc3)CC2)c2ccccc2)c1)N[C@H]1C[C@H](NC(=O)c2ccc(CNC[C@H](O)c3ccc(O)c4[nH]c(=O)ccc34)cc2F)C1` [Compound 128, (S)-(1-benzylpiperidin-4-yl)methyl 2-(3-(2-(((1R,3S)-3-(2-fluoro-4-((((R)-2-hydroxy-2-(8-hydroxy-2-oxo-1,2-dihydroquinolin-5-yl)ethyl)amino)methyl)benzamido)cyclobutyl)amino)-2-oxoethoxy)phenyl)-2-hydroxy-2-phenylacetate], the pIC50 on Human β2 adrenoceptor was above 9.52; on Human M3 receptor, 8.52 to 9.52.
The matching figures for `O=C(COc1cccc([C@](O)(C(=O)OCC2CCN(Cc3ccccc3)CC2)c2ccccc2)c1)N1CC2(C1)CN(C(=O)c1ccc(CCNC[C@H](O)c3ccc(O)c4[nH]c(=O)ccc34)cc1)C2` [Compound 93, (1-benzylpiperidin-4-yl)methyl (S)-2-hydroxy-2-(3-(2-(6-(4-(2-(((R)-2-hydroxy-2-(8-hydroxy-2-oxo-1,2-dihydroquinolin-5-yl)ethyl)amino)ethyl)benzoyl)-2,6-diazaspiro[3.3]heptan-2-yl)-2-oxoethoxy)phenyl)-2-phenylacetate]: above 9.52 and 8.52 to 9.52.
Regarding `O=C(OCC1CCN(Cc2ccccc2)CC1)C(O)(c1cccc(OCCCCCNC[C@H](O)c2ccc(O)c3[nH]c(=O)ccc23)c1)c1ccccc1Cl` (stereo partly drawn) [Compound 6, (1-benzylpiperidin-4-yl)methyl 2-(2-chlorophenyl)-2-hydroxy-2-(3-((5-(((R)-2-hydroxy-2-(8-hydroxy-2-oxo-1,2-dihydroquinolin-5-yl)ethyl)amino)pentyl)oxy)phenyl)acetate], the pIC50 on Human β2 adrenoceptor is above 9.52; at Human M3 receptor, below 8.52.
The matching figures for `O=C(NC1CCN(C(=O)COc2cccc([C@](O)(C(=O)OCC3CCN(Cc4ccccc4)CC3)c3ccccc3)c2)CC1)c1ccc(CNC[C@H](O)c2ccc(O)c3[nH]c(=O)ccc23)cc1` [Compound 59, (1-benzylpiperidin-4-yl)methyl (S)-2-hydroxy-2-(3-(2-(4-(4-((((R)-2-hydroxy-2-(8-hydroxy-2-oxo-1,2-dihydroquinolin-5-yl)ethyl)amino)methyl)benzamido)piperidin-1-yl)-2-oxoethoxy)phenyl)-2-phenylacetate]: above 9.52 and 8.52 to 9.52.
For the molecule `O=C(c1ccc(COc2cccc([C@](O)(C(=O)OCC3CCN(Cc4ccccc4)CC3)c3ccccc3)c2)cc1)N1CCC2(CC1)CN(C(=O)c1ccc(CCNC[C@H](O)c3ccc(O)c4[nH]c(=O)ccc34)cc1)C2` [Compound 119, (1-benzylpiperidin-4-yl)methyl (S)-2-hydroxy-2-(3-((4-(2-(4-(2-(((R)-2-hydroxy-2-(8-hydroxy-2-oxo-1,2-dihydroquinolin-5-yl)ethyl)amino)ethyl)benzoyl)-2,7-diazaspiro[3.5]nonane-7-carbonyl)benzyl)oxy)phenyl)-2-phenylacetate], the pIC50 at Human β2 adrenoceptor is 8.52 to 9.52; at Human M3 receptor, above 9.52.
The matching figures for `O=C(COc1cccc([C@](O)(C(=O)OCC2CCN(Cc3ccccc3)CC2)c2ccccc2)c1)N1CCC(C(=O)N2CCC(CNC[C@H](O)c3ccc(O)c4[nH]c(=O)ccc34)CC2)CC1` [Compound 148, (1-benzylpiperidin-4-yl)methyl (S)-2-hydroxy-2-(3-(2-(4-(4-((((R)-2-hydroxy-2-(8-hydroxy-2-oxo-1,2-dihydroquinolin-5-yl)ethyl)amino)methyl)piperidine-1-carbonyl)piperidin-1-yl)-2-oxoethoxy)phenyl)-2-phenylacetate]: above 9.52 and 8.52 to 9.52.
The matching figures for `CN1CCC(COC(=O)[C@](O)(c2ccccc2)c2cccc(OCCCNC(=O)c3ccc(CNC[C@H](O)c4ccc(O)c5[nH]c(=O)ccc45)cc3)c2)CC1` [Compound 162, (1-methylpiperidin-4-yl)methyl (S)-2-hydroxy-2-(3-(3-(4-((((R)-2-hydroxy-2-(8-hydroxy-2-oxo-1,2-dihydroquinolin-5-yl)ethyl)amino)methyl)benzamido)propoxy)phenyl)-2-phenylacetate]: above 9.52 and 8.52 to 9.52.
The matching figures for `COc1cc(C(=O)N[C@H]2C[C@H](NC(=O)COc3cccc([C@](O)(C(=O)OCC4CCN(Cc5ccccc5)CC4)c4ccccc4)c3)C2)c(F)cc1CNC[C@H](O)c1ccc(O)c2[nH]c(=O)ccc12` [Compound 142, (1-benzylpiperidin-4-yl)methyl (S)-2-(3-(2-(((1R,3S)-3-(2-fluoro-4-((((R)-2-hydroxy-2-(8-hydroxy-2-oxo-1,2-dihydroquinolin-5-yl)ethyl)amino)methyl)-5-methoxybenzamido)cyclobutyl)amino)-2-oxoethoxy)phenyl)-2-hydroxy-2-phenylacetate]: above 9.52 and 8.52 to 9.52.
On to `O=C(OCC1CCN(Cc2ccccc2)CC1)C(O)(c1cccc(OCCCCCNC[C@H](O)c2ccc(O)c3[nH]c(=O)ccc23)c1)c1cccs1` (stereo partly drawn) [Compound 9, (1-benzylpiperidin-4-yl)methyl 2-hydroxy-2-(3-((5-(((R)-2-hydroxy-2-(8-hydroxy-2-oxo-1,2-dihydroquinolin-5-yl)ethyl)amino)pentyl)oxy)phenyl)-2-(thiophen-2-yl)acetate], for which the pIC50 on Human β2 adrenoceptor was above 9.52; at Human M3 receptor, 8.52 to 9.52.
